Source: patent US20230296625A1, “CXCL14 AS PREDICTIVE BIOMARKER FOR ACUTE LIVER FAILURE AND DEATH” (University of Kansas, priority 2022, published 2023)
Read-outs that look alike come from different tables or passages of the source.

Columns and labels:
[1] = tested on: acetaminophen overdose patients; conditions: human, in vivo
Description: A series of experiments were performed in order to evaluate the relevance of the findings from the mouse model (FIGS. 1A-1C), and whether the data can be relevant to humans. Plasma samples ([…]) were from acetaminophen overdose patients, where the plasma samples include 10 survivors with low injury, 30 survivors with high injury and 19 non-survivors. 10 healthy volunteer plasma samples were also obtained for comparison. Patients were categorized based on alanine amino transferase (ALT) level, with survivors with very mild ALT elevations at < 100 U/L categorized as low injury and survivors with peak ALT of 6200 U/L categorized as high injury.
Since the time from acetaminophen exposure until the patient going to the clinic for treatment is highly variable, the day of peak ALT as day 1 was set for all patients to streamline data.
We measured CXCL14 in plasma of acetaminophen-induced injury patients for three days. To make the data more reliable due to the complicated admission day and time of acetaminophen being taken, Day 1 is chosen as the day of peak ALT. We observed no CXCL14 increase in low injury patients (<100 pg/mL). […] In contrast, we found CXCL14 level is significant increased at day 1 (7000 pg/mL), but its level keep elevated by day 3 (8000 pg/mL) with a much higher level compared to the survivors (FIG. 2B). Next, we want to determine whether CXCL14 level in plasma can predict patient outcome.
All results were expressed as mean ± SE. Comparisons between multiple groups were performed with one-way ANOVA or, where appropriate, by two-way ANOVA, followed by a post hoc Bonferroni test. If the data were not normally distributed, we used the Kruskal-Wallis Test (nonparametric ANOVA) followed by Dunn’s Multiple Comparisons Test. P < 0.05 was considered significant. Receiver operating characteristic analysis curve was performed to determine optimal threshold values to discriminate between survivors and non-survivors.

human liver = conditions: in vivo
Description: A western blot analysis on the removed liver from a transplant recipient after acetaminophen overdose was carried out to determine whether circulating CXCL14 levels also reflected levels within the human liver. […] Therefore, the biological sample can be a blood sample (or plasma) or a liver sample.
Histology and Immunohistochemistry Formalin-fixed human and mouse tissue samples were embedded in paraffin and 5 µm sections were cut. Sections were stained with hematoxylin and eosin (H&E) for evaluation of the areas of necrosis. Additional liver sections were hydrated and went through antigen retrieval by boiling in sodium citrate buffer (pH 6.0). Liver sections were blocked in 3% BSA and serum then incubated with the primary antibodies overnight. Primary antibodies included anti-rabbit CD68 (Cell Signaling Technology, cat # 26042). Liver sections were washed and incubated in 3% hydrogen peroxide to block endogenous peroxidases. Biotinylated secondary antibody and DAB substrate were used to visualize the signals. Immunofluorescence staining was performed using 5 µm cryosections prepared from OCT-embedded tissue. Sections were blocked with 3% BSA and stained with anti-rabbit CXCL14 (Abcam, cat #264467). Fluorescence conjugated secondary antibodies Alexa Fluor 488 (Invitrogen, cat #A11034) goat anti rabbit was used.
Western blotting snap frozen tissue was homogenized in a CHAPs containing protein buffer and total protein was measured using the BCA assay (Pierce Scientific, Waltham, Massachusetts). Gel electrophoresis was carried out on protein lysates from individual samples, which were then transferred to a nitrocellulose blot.

[2] = tested on: fasted male C57BL/6J mice; conditions: mouse, in vivo
Description: The liver and plasma samples were collected between 6-72 hours after acetaminophen exposure.
ALT assay plasma alanine aminotransferase (ALT) activities were measured using an ALT test kit (Point Scientific, Inc, Canton, MI) per the manufacturer’s instruction.

CC(=O)Nc1ccc(O)cc1 [acetaminophen, N-acetyl-p-aminophenol]
ALT elevations [1]: < 100 U/L | bilirubin [1]: 12.5 mg/dL | prothrombin times [1]: significantly higher | ALT (human liver): 1620.9 U/L | hepatic levels of CXCL14 (western blot) (human liver): Elevation in hepatic levels of CXCL14 are evident | macrophage staining with CD68 (human liver): significant increase in macrophage staining | necrosis by H&E staining (human liver): significant areas of necrosis | staining for CXCL14 in liver sections (human liver): significant elevations | plasma ALT levels ([2]; 300 mg/kg): return to baseline in both doses by 72 hours | plasma ALT levels ([2]; 600 mg/kg): return to baseline in both doses by 72 hours
